Consider 3 compounds from patent publication US20060188576A1, “Pirenzepine ophthalmic gel” (priority 2001, published 2006).

Structures can show the parent of a compound that is named as a salt. Where two headings read alike, the source gives them in different places.

Data set [1] in a line: Stability of pirenzepine in solution. The data set is classed as physicochemical. The following applies: pH 5.
The conditions of data set [2]: solution in up to 2% strength, topical ocular, adult volunteers; cited from earlier work.
The test system of data set [3] is chick model of myopia. The following applies: subconjunctival injections; cited from earlier work.
Data set [4] has as its system myopia. The note with it: cited from earlier work.
Data set [5] deals with myopia. The following applies: tree shrews; cited from earlier work.
In data set [6] the test system is myopia. The following applies: stump-tailed monkeys; cited from earlier work.
The test system of data set [7] is myopia. The following applies: chicks; cited from earlier work.

As to `CN1CCN(CC(=O)N2c3ccccc3C(=O)Nc3cccnc32)CC1` [Pirenzepine, 5,11-dihydro-11-[(4-methyl-1-piperazinyl)acetyl]-6H pyrido [2,3-b][1,4]-benzodiazepin-6-one dihydrochloride monohydrate], the stability in solution result in data set [1] is given as “stable in solution especially at pH 5”. For the same compound, the “comfort and systemic effects” value in data set [2] is “comfortable and without systemic effects”. Besides, the axial eye growth result in data set [3] is recorded as “attenuated axial eye growth”.
Take `CN1[C@@H]2CC[C@H]1C[C@@H](OC(=O)C(CO)c1ccccc1)C2` (stereo partly drawn) [atropine]: the axial eye growth result in data set [3] is “attenuated axial eye growth”. Moreover, the development of myopia result in data set [4] (humans), in data set [5], in data set [6] and in data set [7] was “prevents the development of myopia” throughout.
With `CCN(Cc1ccncc1)C(=O)C(CO)c1ccccc1` (stereo not drawn) [tropicamide], in data set [4] (mild cycloplegic agent, several studies), the “effectiveness as myopia therapy” value is given as “effective in a number of studies but failed in other studies”.
